Test results taken from patent US20250313548A1 (Actio Biosciences, Inc., priority 2023, published 2025).

What follows are compounds tested against human, KCNT1 (Homo sapiens (Human), UniProt Q5JUK3) (assay: FLIPR Tl/K Flux Assay). Details: HEK293 cells stably expressing human KCNT1; Tl+ flux stimulated with EC80 of agonist Loxapine.
Type: cell-based
Summary of the method: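 Inhibition values come from a Hill-equation fit of % inhibition versus log concentration, using normalized fluorescence (Fmax/Fmin) over a 160 s read. The read followed stimulation with Tl+ plus EC80 agonist loxapine after 30 min compound pre-incubation at 25 °C. Cells were KCNT1-expressing HEK293, dye-loaded 1 h in pH 7.4 HEPES/HBSS with 5 mM probenecid.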

Chain of human, KCNT1 (Q5JUK3 whole entry): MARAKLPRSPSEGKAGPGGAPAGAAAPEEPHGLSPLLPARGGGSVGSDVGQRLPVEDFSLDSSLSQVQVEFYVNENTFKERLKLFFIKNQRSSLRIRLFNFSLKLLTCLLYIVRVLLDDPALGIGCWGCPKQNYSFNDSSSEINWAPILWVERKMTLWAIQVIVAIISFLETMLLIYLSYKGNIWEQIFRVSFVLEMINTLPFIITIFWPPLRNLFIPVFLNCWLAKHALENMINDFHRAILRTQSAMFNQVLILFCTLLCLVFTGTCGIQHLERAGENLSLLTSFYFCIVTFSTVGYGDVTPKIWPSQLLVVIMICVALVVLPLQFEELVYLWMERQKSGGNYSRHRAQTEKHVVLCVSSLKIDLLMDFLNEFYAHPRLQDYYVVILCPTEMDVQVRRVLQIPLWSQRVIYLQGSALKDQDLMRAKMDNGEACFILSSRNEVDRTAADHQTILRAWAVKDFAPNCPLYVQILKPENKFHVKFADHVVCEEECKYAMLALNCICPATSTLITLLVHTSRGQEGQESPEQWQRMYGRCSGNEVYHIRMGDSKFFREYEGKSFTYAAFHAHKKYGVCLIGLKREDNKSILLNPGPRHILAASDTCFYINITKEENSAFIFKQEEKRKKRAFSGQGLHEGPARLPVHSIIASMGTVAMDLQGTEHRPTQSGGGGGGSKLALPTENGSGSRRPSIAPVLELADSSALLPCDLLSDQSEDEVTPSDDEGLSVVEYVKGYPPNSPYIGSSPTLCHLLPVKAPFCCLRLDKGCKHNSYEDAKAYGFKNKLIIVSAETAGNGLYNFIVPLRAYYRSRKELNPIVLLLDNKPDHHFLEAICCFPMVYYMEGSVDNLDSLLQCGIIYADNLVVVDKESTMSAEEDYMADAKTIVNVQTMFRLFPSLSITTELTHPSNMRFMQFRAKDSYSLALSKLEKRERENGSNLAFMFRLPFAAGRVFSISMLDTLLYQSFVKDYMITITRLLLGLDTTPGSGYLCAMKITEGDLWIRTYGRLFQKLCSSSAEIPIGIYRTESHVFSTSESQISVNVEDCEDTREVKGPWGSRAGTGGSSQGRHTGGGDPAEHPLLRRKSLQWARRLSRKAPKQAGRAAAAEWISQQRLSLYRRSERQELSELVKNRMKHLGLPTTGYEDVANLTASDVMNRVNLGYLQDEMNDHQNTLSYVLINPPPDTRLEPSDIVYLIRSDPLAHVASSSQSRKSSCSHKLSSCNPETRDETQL

IC50 [nM]	Compound
< 250	Cn1nc(C(F)(F)F)nc1C(=O)N[C@H]1CCCCn2nc(-c3ccnc(C(F)(F)F)c3)cc21 [Compound I-324a, (S)-1-Methyl-3-(trifluoromethyl)-N-(2-(2-(trifluoromethyl)pyridin-4-yl)-5,6,7,8-tetrahydro-4H-pyrazolo[1,5-a]azepin-4-yl)-1H-1,2,4-triazole-5-carboxamide]
< 250	O=C(N[C@H]1CCCn2nc(-c3ccnc(C(F)(F)F)c3)cc21)c1ccnc(C(F)(F)F)n1 [Compound I-327a, (S)-2-(Trifluoromethyl)-N-(2-(2-(trifluoromethyl)pyridin-4-yl)-4,5,6,7-tetrahydropyrazolo[1,5-a]pyridin-4-yl)pyrimidine-4-carboxamide]
< 250	COc1cc(C(=O)N[C@H]2CCCn3nc(-c4ccnc(C(F)(F)F)c4)cc32)ccn1 [Compound I-330a, (S)-2-Methoxy-N-(2-(2-(trifluoromethyl)pyridin-4-yl)-4,5,6,7-tetrahydropyrazolo[1,5-a]pyridin-4-yl)isonicotinamide]
< 250	Cc1cc(C#N)cc(C(=O)N[C@H]2CCn3nc(-c4ccnc(C(F)(F)F)c4)cc32)c1 [Compound I-334a, (S)-3-Cyano-5-methyl-N-(2-(2-(trifluoromethyl)pyridin-4-yl)-5,6-dihydro-4H-pyrrolo[1,2-b]pyrazol-4-yl)benzamide]
< 250	N#Cc1cccc(C(=O)N[C@H]2CCCCc3nn(-c4ccnc(C5CC5)c4)cc32)c1 [Compound I-335a, (S)-3-Cyano-N-(2-(2-cyclopropylpyridin-4-yl)-2,4,5,6,7,8-hexahydrocyclohepta[c]pyrazol-4-yl)benzamide]
500 to 1000	COc1cc(-n2cc3c(n2)CC[C@@H]3NC(=O)c2cc(C(F)(F)F)nn2C)cc(C)n1 [Compound I-336a, (S)-N-(2-(2-Methoxy-6-methylpyridin-4-yl)-2,4,5,6-tetrahydrocyclopenta[c]pyrazol-4-yl)-1-methyl-3-(trifluoromethyl)-1H-pyrazole-5-carboxamide]
< 250	CCOc1cc(-n2cc3c(n2)CC[C@@H]3NC(=O)c2cc(F)cc(F)c2)ccn1 [Compound I-337a, (S)-N-(2-(2-Ethoxypyridin-4-yl)-2,4,5,6-tetrahydrocyclopenta[c]pyrazol-4-yl)-3,5-difluorobenzamide]
> 1000	O=C(N[C@H]1CCc2cnc(-c3ccnc(C(F)(F)F)c3)cc21)c1cc2cccnn2c1 [Compound I-340a]
< 250	COc1cc(C#N)cc(C(=O)N[C@H]2CCCn3nc(-c4ccnc(C(F)(F)F)c4)cc32)c1 [Compound I-341a, (S)-3-Cyano-5-methoxy-N-(2-(2-(trifluoromethyl)pyridin-4-yl)-4,5,6,7-tetrahydropyrazolo[1,5-a]pyridin-4-yl)benzamide]
> 1000	COc1cc(-c2cc3n(n2)CCC[C@@H]3NC(=O)c2cc(C(F)(F)F)nn2C)cc(OC)n1 [Compound I-344a]
< 250	CC(C)c1cc(C(=O)N[C@H]2CCCn3nc(-c4ccnc(C(F)(F)F)c4)cc32)n(C)n1 [Compound I-350a]

The next lines start with the compound.

Compound	IC50 [nM]
N#Cc1cc(F)cc(C(=O)N[C@H]2CCn3nc(-c4ccnc(C(F)(F)F)c4)cc32)c1 [Compound I-323a, (S)-3-Cyano-5-fluoro-N-(2-(2-(trifluoromethyl)pyridin-4-yl)-5,6-dihydro-4H-pyrrolo[1,2-b]pyrazol-4-yl)benzamide]	< 250
Cc1nn(C(F)(F)F)cc1C(=O)N[C@H]1CCCn2nc(-c3ccnc(C(F)(F)F)c3)cc21 [Compound I-325a, (S)-3-Methyl-1-(trifluoromethyl)-N-(2-(2-(trifluoromethyl)pyridin-4-yl)-4,5,6,7-tetrahydropyrazolo[1,5-a]pyridin-4-yl)-1H-pyrazole-4-carboxamide]	< 250
Cn1nc(C(F)(F)F)nc1C(=O)N[C@H]1CCCn2nc(-c3ccnc(C(F)(F)F)c3)cc21 [Compound I-326a, (S)-1-Methyl-3-(trifluoromethyl)-N-(2-(2-(trifluoromethyl)pyridin-4-yl)-4,5,6,7-tetrahydropyrazolo[1,5-a]pyridin-4-yl)-1H-1,2,4-triazole-5-carboxamide]	< 250
N#Cc1cc(C(=O)N[C@H]2CCCn3nc(-c4ccnc(C(F)(F)F)c4)cc32)ccn1 [Compound I-328a, (S)-2-Cyano-N-(2-(2-(trifluoromethyl)pyridin-4-yl)-4,5,6,7-tetrahydropyrazolo[1,5-a]pyridin-4-yl)isonicotinamide]	< 250
COc1cc(C(=O)N[C@H]2CCCCn3nc(-c4ccnc(C(F)(F)F)c4)cc32)ccn1 [Compound I-329a, (S)-2-Methoxy-N-(2-(2-(trifluoromethyl)pyridin-4-yl)-5,6,7,8-tetrahydro-4H-pyrazolo[1,5-a]azepin-4-yl)isonicotinamide]	< 250
COc1cc(C(=O)N[C@H]2CCn3nc(-c4ccnc(C(F)(F)F)c4)cc32)ccn1 [Compound I-331a, (S)-2-Methoxy-N-(2-(2-(trifluoromethyl)pyridin-4-yl)-5,6-dihydro-4H-pyrrolo[1,2-b]pyrazol-4-yl)isonicotinamide]	< 250
COc1cc(C(=O)N[C@H]2CCc3nn(-c4ccnc(C(F)(F)F)c4)cc32)ccn1 [Compound I-332a, (S)-2-Methoxy-N-(2-(2-(trifluoromethyl)pyridin-4-yl)-2,4,5,6-tetrahydrocyclopenta[c]pyrazol-4-yl)isonicotinamide]	< 250
N#Cc1cc(C(=O)N[C@H]2CCCn3nc(-c4ccnc(C(F)(F)F)c4)cc32)cc(C2CC2)c1 [Compound I-333a, (S)-3-Cyano-5-cyclopropyl-N-(2-(2-(trifluoromethyl)pyridin-4-yl)-4,5,6,7-tetrahydropyrazolo[1,5-a]pyridin-4-yl)benzamide]	< 250
O=C(N[C@H]1CCCn2nc(-c3ccnc(C(F)(F)F)c3)cc21)c1cn(C(F)(F)F)nc1C(F)(F)F [Compound I-338a, (S)-1,3-bis(trifluoromethyl)-N-(2-(2-(trifluoromethyl)pyridin-4-yl)-4,5,6,7-tetrahydropyrazolo[1,5-a]pyridin-4-yl)-1H-pyrazole-4-carboxamide]	< 250
N#Cc1cccc(C(=O)N[C@H]2CCn3nc(-c4ccnc(C(F)(F)F)c4)cc32)c1 [Compound I-342a, (S)-3-Cyano-N-(2-(2-(trifluoromethyl)pyridin-4-yl)-5,6-dihydro-4H-pyrrolo[1,2-b]pyrazol-4-yl)benzamide]	< 250
N#Cc1cc(C(=O)N[C@H]2CCCn3nc(-c4ccnc(C(F)(F)F)c4)cc32)ccc1F [Compound I-343a, (S)-3-Cyano-4-fluoro-N-(2-(2-(trifluoromethyl)pyridin-4-yl)-4,5,6,7-tetrahydropyrazolo[1,5-a]pyridin-4-yl)benzamide]	< 250
Cn1nc(C2CC2)cc1C(=O)N[C@H]1CCCn2nc(-c3ccnc(C(F)(F)F)c3)cc21 [Compound I-347a]	< 250
Cn1nc(C(F)F)cc1C(=O)N[C@H]1CCCn2nc(-c3ccnc(C(F)(F)F)c3)cc21 [Compound I-348a]	< 250
N#Cc1ccc(C(=O)N[C@H]2CCCn3nc(-c4ccnc(C(F)(F)F)c4)cc32)cc1 [Compound I-349a]	< 250
Cn1nc(-c2ccccc2)cc1C(=O)N[C@H]1CCCn2nc(-c3ccnc(C(F)(F)F)c3)cc21 [Compound I-351a]	< 250
O=C(N[C@H]1CCCn2nc(-c3ccnc(C(F)(F)F)c3)cc21)c1cc(Cl)cc(C(F)(F)F)c1 [Compound I-352a]	< 250
